Reference: patent publication US4547354A (priority 1983, dated 1985)
Read-outs that look alike come from different tables or passages of the source.

Conditions: 95° C., 4 hours

For `OO` [H2 O2, hydrogen peroxide], the “% Hydrogen Peroxide Recovery” value (Example 1 of Table II: chlorobenzene 40.0 g, no acetone/methanol) was 101%, the “Hydrogen Peroxide (mmoles) Recovered” value (Example 1 of Table II: chlorobenzene 40.0 g, no acetone/methanol, 93.6 mmoles in) was 94.1 mmol and the “% Hydrogen Peroxide Recovery” value (Example 2 of Table II: chlorobenzene 40.0 g, with acetone and methanol) was 67%. The “Hydrogen Peroxide (mmoles) Recovered” value (Example 2 of Table II: chlorobenzene 40.0 g, with acetone and methanol, 104.2 mmoles in) was 69.4 mmol, the “% Hydrogen Peroxide Recovery” value (Example A: sulfuric acid, no chlorobenzene, no acetone/methanol) was 107% and the “Hydrogen Peroxide (mmoles) Recovered” value (Example A: sulfuric acid, no chlorobenzene, no acetone/methanol, 104.0 mmoles in) was 111.7 mmol. For the same compound, the “% Hydrogen Peroxide Recovery” value (Example B: no chlorobenzene, with acetone and methanol) was 3% and the “Hydrogen Peroxide (mmoles) Recovered” value (Example B: no chlorobenzene, with acetone and methanol, 104.8 mmoles in) was 3.2 mmol.
